{
  "source": "patent US8008461B2",
  "about": "“Carbonyl reductase, gene therefor and use thereof” (Kaneka Corporation, priority 2004, dated 2011)",
  "data": [
    {"tested_on": "purified polypeptide (carbonyl reductase)", "test": "Substrate specificity of polypeptide (NADPH-dependent reduction of carbonyl compounds)", "format": "biochemical, Candida magnoliae strain NBRC0661", "details": "1 mM substrate, 0.25 mM NADPH, pH 6.5, 30° C.; relative to activity to 3-oxo-3-phenylpropanenitrile", "units": {"Relative activity": "%"}, "values": [
      {"smiles": "CCOC(=O)CC(=O)c1ccccc1", "note": "[ethyl benzoylacetate]", "Relative activity": 7704},
      {"smiles": "CC(=O)c1ccncc1", "note": "[4-acetylpyridine]", "Relative activity": 15710},
      {"smiles": "O=C(O)CC(=O)C(=O)O", "note": "[oxalacetic acid]", "Relative activity": 421},
      {"smiles": "COc1ccc(C(C)=O)cc1OC", "note": "[3,4-dimethoxyacetophenone]", "Relative activity": 2889},
      {"smiles": "CC(=O)CCc1ccccc1", "note": "[benzylacetone]", "Relative activity": 241},
      {"smiles": "CC(=O)c1ccc(C)cc1", "note": "[p-methylacetophenone]", "Relative activity": 542},
      {"smiles": "CC(=O)c1cccnc1", "note": "[3-acetylpyridine]", "Relative activity": 2107},
      {"smiles": "O=C(CCl)c1cccc(Cl)c1", "note": "[2-chloro-1-(3′-chlorophenyl)ethanone]", "Relative activity": 10473},
      {"smiles": "CC(=O)c1ccc(F)cc1", "note": "[p-fluoroacetophenone]", "Relative activity": 722},
      {"smiles": "N#CCC(=O)c1ccccc1", "note": "[3-oxo-3-phenylpropanenitrile]", "Relative activity": 100},
      {"smiles": "CCC(=O)c1ccccc1", "note": "[propiophenone]", "Relative activity": 3010},
      {"smiles": "CC(=O)c1ccccc1", "note": "[acetophenone]", "Relative activity": 1023},
      {"smiles": "O=C(CO)c1ccccc1", "note": "[2-hydroxyacetophenone]", "Relative activity": 1806},
      {"smiles": "CCCCCC(C)=O", "note": "[2-heptanone]", "Relative activity": 782},
      {"smiles": "CC(=O)c1ccccn1", "note": "[2-acetylpyridine]", "Relative activity": 1926},
      {"smiles": "CC(=O)c1cccc([N+](=O)[O-])c1", "note": "[m-nitroacetophenone]", "Relative activity": 5056},
      {"smiles": "CCOC(=O)CC(=O)CCl", "note": "[ethyl 4-chloroacetoacetate]", "Relative activity": 8547},
      {"smiles": "CC(=O)CC(=O)OCc1ccccc1", "note": "[benzyl acetoacetate]", "Relative activity": 4936},
      {"smiles": "CCC(=O)C(=O)O", "note": "[2-keto-n-butyric acid]", "Relative activity": 1866},
      {"smiles": "CC(=O)C1CC1", "note": "[cyclopropyl methyl ketone]", "Relative activity": 181},
      {"smiles": "CCCCC(C)=O", "note": "[2-hexanone]", "Relative activity": 602},
      {"smiles": "CC(=O)CCO", "note": "[4-hydroxy-2-butanone]", "Relative activity": 301},
      {"smiles": "CCC(=O)Cc1ccccc1", "note": "[1-phenyl-2-butanone]", "Relative activity": 1144},
      {"smiles": "CCC(C)=O", "note": "[2-butanone]", "Relative activity": 181},
      {"smiles": "CC(=O)CO", "note": "[hydroxyacetone]", "Relative activity": 361},
      {"smiles": "CC(=O)c1ccc(Cl)cc1", "note": "[p-chloroacetophenone]", "Relative activity": 2347},
      {"smiles": "CC(=O)CC(C)C", "note": "[4-methyl-2-pentanone]", "Relative activity": 60},
      {"smiles": "COC(=O)C(C)=O", "note": "[methyl pyruvate]", "Relative activity": 9450},
      {"smiles": "CCOC(=O)CC(C)=O", "note": "[ethyl acetoacetate]", "Relative activity": 903}
    ]}
  ]
}
